Data on 17 compounds can be found in ChEMBL document CHEMBL5512631, “Research progress of DDR1 inhibitors in the treatment of multiple human diseases” (Eur J Med Chem, 2024).

As a reminder, the EC50 is the concentration giving half of the maximal effect. Usually inhibition stands for the change of the read-out against control, counted positive when it falls. By clearance is commonly meant a measure of how efficiently the substance is removed, as volume per time. The low end stands for a low capacity for elimination, the high end for a high capacity for elimination. Broadly, the IC50 is the concentration that gives 50% inhibition. As usually defined, the Kd is a measure of binding affinity in units of concentration. The term solubility denotes how much of the substance goes into solution per volume. Lower therefore signals a poorly soluble substance.

Series [1] relates to U2OS. Kind of series: Antiproliferative activity against human U2OS cells […] assessed as reduction in cell viability incubated for 24 hrs by MTT assay. It is filed as functional, cell-based.
Series [2] deals with T1, Epithelial discoidin domain-containing receptor 1 (Homo sapiens, UniProt Q08345). Kind of series: Inhibition of DDR1 (unknown origin) at 10 uM by DiscoverX KINOMEscan assay relative to control.
The nature of series [3]: Microsomal stability in rat liver microsomes assessed as intrinsic clearance. It is filed as ADME, Microsome.
A short description of series [4]: Clearance in human liver microsomes measured upto […] by HPLC-MS/MS analysis. The class given is ADME, Microsome. (Microsomes from liver hold many membrane-bound enzymes, among them those of drug oxidation.)
A short description of series [5]: Clearance in C57BL/6 mouse at 1 mg/kg, iv measured upto 8 hrs by HPLC analysis. The class given is ADME, organism-based. Conditions: in vivo.
Series [6] deals with Vascular endothelial growth factor receptor 2 (Homo sapiens) (UniProt P35968). In words: Inhibition of KDR (unknown origin) at 100 nM by ADP-Glo assay relative to control. Background: ADP-Glo first removes unused ATP, then detects ADP through luciferase.
Series [7] has as its target T2, Discoidin domain-containing receptor 2 (Homo sapiens, UniProt Q16832).
T2 sequence (Q16832 whole entry): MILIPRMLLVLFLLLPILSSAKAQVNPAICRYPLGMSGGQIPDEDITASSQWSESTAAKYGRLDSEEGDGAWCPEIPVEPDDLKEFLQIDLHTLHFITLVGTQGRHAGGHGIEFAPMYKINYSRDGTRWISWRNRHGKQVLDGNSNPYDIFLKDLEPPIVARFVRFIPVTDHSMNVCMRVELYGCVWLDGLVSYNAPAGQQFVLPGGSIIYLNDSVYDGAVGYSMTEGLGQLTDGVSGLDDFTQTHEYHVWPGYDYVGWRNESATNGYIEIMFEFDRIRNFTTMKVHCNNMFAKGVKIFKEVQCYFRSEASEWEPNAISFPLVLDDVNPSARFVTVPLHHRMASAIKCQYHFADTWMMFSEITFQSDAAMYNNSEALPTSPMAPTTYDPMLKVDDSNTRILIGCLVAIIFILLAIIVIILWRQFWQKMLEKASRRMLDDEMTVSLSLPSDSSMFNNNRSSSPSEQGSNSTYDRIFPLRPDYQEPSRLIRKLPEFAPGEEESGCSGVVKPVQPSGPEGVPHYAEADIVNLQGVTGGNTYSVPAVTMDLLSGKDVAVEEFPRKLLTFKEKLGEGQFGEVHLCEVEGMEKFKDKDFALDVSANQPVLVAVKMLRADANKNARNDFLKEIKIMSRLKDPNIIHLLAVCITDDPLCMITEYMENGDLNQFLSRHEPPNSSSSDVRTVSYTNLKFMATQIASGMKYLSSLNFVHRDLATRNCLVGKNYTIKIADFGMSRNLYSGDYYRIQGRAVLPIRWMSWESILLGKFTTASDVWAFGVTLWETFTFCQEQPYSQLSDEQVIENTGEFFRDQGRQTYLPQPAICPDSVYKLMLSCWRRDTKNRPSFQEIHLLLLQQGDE
Kind of series: Inhibition of human DDR2 by discoverX kinome scan assay.

The target of series [8] is T1, Epithelial discoidin domain-containing receptor 1. Kind of series: Inhibition of flag-tagged DDR1 (unknown origin) by TR-FRET assay. On the technique in general: Time-resolved FRET reads energy transfer from a long-lived donor to a nearby acceptor.
Series [9] has as its target Proto-oncogene tyrosine-protein kinase receptor Ret (Homo sapiens) (UniProt P07949). Kind of series: Inhibition of RET (unknown origin) at 100 uM using Poly(4:1 Glu, Tyr) as substrate in presence of ATP by absorbance based analysis relative to control.
Series [10] concerns the target Vascular endothelial growth factor receptor 2 (Homo sapiens) (UniProt P35968). Kind of series: Inhibition of KDR (unknown origin) at 100 nM relative to control.
Series [11] addresses T2, Discoidin domain-containing receptor 2. In words: Inhibition of flag-tagged DDR2 (unknown origin) by TR-FRET assay.
The target of series [12] is Receptor-type tyrosine-protein kinase FLT3 (Homo sapiens) (UniProt P36888). In words: Inhibition of FLT3 (unknown origin) at 100 nM relative to control.
In series [13] the target is T1, Epithelial discoidin domain-containing receptor 1. Kind of series: Inhibition of DDR1 (unknown origin) using Fluorescein-Poly GAT as substrate by TR-FRET analysis.
In series [14] the target is T2, Discoidin domain-containing receptor 2. Kind of series: Inhibition of DDR2 (unknown origin) using Fluorescein-Poly GAT as substrate by TR-FRET analysis.
In series [15] the target is T1, Epithelial discoidin domain-containing receptor 1. In words: Inhibition of DDR1 (unknown origin).
Series [16] deals with T2, Discoidin domain-containing receptor 2. In words: Inhibition of DDR2 (unknown origin) by ADP-Glo assay.
The target in series [17] is T1, Epithelial discoidin domain-containing receptor 1. Kind of series: Binding affinity to DDR1 (unknown origin) assessed as dissociation constant.
Series [18] has the same target. Kind of series: Inhibition of GST-tagged recombinant DDR1 (unknown origin) expressed in Escherichia coli BL21 by DiscoverX KINOMEscan assay.
Series [19] concerns the target T2, Discoidin domain-containing receptor 2. Kind of series: Inhibition of GST-tagged recombinant DDR2 (unknown origin) expressed in Escherichia coli BL21 by DiscoverX KINOMEscan assay.
The nature of series [20]: Aqueous solubility of compound in phosphate buffer at pH 6.5. It is filed as physicochemical.

Converted amounts (≈) assume the structure as drawn.

T1 sequence (Q08345 whole entry, the tested form may be a part): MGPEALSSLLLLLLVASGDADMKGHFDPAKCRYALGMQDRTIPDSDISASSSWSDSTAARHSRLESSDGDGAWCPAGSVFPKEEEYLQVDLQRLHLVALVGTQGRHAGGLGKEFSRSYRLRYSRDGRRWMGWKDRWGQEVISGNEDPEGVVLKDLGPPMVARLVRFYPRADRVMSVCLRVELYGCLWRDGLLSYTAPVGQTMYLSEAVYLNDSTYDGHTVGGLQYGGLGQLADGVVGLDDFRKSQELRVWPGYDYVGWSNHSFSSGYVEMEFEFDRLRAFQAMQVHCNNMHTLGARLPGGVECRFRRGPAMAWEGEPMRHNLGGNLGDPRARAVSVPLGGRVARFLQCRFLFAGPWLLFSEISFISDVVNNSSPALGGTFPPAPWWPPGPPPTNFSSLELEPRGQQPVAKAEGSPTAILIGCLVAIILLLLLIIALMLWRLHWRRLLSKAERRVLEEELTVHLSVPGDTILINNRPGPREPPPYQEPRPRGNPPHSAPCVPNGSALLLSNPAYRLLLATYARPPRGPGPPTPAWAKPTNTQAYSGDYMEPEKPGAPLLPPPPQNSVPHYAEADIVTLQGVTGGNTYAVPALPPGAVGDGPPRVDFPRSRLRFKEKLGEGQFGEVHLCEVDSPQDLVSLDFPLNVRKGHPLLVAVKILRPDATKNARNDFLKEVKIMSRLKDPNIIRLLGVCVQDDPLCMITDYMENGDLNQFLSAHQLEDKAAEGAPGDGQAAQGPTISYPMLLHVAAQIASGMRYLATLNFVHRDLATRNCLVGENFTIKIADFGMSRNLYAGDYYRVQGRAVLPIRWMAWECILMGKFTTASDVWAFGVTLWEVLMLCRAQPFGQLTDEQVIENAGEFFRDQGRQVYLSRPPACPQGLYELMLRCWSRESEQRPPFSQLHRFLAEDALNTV
Chain of Proto-oncogene tyrosine-protein kinase receptor Ret (Homo sapiens) (P07949 whole entry): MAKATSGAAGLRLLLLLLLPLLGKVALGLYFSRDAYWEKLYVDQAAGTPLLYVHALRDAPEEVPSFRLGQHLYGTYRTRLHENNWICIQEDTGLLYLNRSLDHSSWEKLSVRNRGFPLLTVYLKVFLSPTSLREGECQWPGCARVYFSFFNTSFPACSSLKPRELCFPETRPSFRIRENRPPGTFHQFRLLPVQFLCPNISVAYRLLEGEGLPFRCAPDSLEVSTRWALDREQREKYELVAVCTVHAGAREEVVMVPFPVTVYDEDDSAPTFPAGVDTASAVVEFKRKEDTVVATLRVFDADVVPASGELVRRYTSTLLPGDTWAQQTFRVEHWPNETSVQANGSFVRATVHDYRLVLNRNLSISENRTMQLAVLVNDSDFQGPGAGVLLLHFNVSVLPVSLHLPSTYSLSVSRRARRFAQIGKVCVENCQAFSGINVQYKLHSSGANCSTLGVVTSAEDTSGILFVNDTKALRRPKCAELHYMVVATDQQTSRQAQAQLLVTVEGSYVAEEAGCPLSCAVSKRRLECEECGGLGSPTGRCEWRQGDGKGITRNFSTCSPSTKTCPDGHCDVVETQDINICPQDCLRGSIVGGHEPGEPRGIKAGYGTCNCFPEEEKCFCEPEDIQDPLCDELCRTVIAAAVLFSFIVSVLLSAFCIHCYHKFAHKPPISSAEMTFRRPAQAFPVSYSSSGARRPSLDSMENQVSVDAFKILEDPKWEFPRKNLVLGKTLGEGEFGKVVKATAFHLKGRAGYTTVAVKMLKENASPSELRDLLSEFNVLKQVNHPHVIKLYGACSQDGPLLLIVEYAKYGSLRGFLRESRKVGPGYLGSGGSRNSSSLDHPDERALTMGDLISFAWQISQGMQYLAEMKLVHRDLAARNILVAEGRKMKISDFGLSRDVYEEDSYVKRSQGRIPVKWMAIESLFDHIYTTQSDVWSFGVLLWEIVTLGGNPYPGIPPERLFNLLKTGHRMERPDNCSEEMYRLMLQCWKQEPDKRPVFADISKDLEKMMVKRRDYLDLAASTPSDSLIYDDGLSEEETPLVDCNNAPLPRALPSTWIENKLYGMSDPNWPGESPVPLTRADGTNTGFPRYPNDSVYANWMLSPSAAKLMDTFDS
Chain of Vascular endothelial growth factor receptor 2 (Homo sapiens) (P35968 whole entry, the tested form may be a part): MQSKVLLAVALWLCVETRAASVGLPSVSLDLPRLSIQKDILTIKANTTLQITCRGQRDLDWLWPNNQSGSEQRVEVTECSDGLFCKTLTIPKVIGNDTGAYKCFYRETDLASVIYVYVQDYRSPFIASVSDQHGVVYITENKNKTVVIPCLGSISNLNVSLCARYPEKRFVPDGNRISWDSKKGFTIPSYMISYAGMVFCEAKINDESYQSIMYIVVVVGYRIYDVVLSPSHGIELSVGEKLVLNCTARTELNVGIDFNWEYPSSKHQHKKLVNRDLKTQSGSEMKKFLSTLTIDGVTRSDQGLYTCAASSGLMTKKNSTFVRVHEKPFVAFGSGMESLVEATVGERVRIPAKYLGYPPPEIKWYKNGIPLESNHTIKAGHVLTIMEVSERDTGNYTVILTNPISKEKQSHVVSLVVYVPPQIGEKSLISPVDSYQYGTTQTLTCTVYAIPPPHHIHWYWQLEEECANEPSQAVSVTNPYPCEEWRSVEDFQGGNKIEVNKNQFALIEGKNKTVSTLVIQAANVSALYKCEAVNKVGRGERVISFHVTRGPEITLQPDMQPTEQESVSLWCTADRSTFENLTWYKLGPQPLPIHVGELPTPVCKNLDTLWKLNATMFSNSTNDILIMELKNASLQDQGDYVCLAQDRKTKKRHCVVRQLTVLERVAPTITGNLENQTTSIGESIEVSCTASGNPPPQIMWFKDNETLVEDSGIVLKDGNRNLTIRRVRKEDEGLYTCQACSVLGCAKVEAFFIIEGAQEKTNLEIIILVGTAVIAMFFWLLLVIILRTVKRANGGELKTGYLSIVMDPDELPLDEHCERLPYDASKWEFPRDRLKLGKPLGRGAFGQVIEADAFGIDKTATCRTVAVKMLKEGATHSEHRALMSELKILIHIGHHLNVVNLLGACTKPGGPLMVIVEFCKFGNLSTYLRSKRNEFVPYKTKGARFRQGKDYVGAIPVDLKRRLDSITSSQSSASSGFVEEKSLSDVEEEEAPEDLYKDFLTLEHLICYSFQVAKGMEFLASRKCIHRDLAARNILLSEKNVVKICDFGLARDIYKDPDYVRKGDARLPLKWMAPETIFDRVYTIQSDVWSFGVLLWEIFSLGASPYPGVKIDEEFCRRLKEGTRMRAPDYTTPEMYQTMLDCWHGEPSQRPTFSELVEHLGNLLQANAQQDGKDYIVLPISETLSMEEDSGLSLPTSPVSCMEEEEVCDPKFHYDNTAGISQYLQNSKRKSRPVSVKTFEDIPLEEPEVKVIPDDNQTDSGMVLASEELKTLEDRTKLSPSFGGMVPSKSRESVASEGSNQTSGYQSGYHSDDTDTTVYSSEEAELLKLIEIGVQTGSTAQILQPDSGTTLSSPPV
Chain of Receptor-type tyrosine-protein kinase FLT3 (Homo sapiens) (P36888 whole entry, the tested form may be a part): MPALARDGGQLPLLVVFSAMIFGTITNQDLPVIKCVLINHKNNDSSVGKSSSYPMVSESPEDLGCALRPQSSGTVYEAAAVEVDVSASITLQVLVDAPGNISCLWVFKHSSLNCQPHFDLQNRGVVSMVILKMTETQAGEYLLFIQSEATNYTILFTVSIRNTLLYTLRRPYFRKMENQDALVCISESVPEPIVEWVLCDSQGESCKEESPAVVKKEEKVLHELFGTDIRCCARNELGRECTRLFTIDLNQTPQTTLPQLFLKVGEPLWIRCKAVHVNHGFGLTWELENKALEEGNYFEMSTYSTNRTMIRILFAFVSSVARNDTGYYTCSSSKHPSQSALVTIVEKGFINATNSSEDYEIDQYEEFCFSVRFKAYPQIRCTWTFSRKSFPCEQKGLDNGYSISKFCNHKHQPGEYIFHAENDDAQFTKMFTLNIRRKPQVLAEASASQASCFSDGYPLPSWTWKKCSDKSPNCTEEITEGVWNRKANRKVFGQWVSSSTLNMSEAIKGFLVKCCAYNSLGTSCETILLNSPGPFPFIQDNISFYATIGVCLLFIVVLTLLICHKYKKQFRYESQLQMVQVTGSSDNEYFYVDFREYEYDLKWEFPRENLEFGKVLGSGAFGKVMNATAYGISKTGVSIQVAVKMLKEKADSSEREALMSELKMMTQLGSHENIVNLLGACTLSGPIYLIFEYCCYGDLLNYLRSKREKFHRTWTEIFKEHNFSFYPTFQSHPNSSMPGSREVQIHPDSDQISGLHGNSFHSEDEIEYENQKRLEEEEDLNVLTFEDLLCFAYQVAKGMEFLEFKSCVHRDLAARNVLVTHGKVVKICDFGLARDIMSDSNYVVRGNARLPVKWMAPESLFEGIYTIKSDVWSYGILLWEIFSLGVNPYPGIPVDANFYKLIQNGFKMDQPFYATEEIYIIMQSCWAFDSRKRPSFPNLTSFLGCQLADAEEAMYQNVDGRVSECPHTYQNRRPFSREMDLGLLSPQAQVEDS

For `CCN1CCN(Cc2ccc(C(=O)Nc3ccc(C)c(Oc4ccc5c(c4)CC(=O)N5)c3)cc2C(F)(F)F)CC1`, the EC50 in [1] stood at 86 nM.

Take `CCc1cccc2c(/C=C3\NC(=S)N(c4ccc(C)c(C)c4)C3=O)cn(CC(=O)NCCOC)c12`: the inhibition in [2] is 70.4%.

Consider `Cc1ccc(C(=O)Nc2cccc(C(F)(F)F)c2)cc1Nc1cncc(C(N)=O)c1`, for which the CLint in series [3] turned out to be 60 µL/min/mg.

In [4], `O=C(CN1C(=O)C2(CCN(C(=O)c3ccc4[nH]ncc4n3)CC2)c2c(Br)cccc21)NCC(F)(F)F` had a CLH of 10 µL/min/mg. The clearance in series [5] is 103 mL/min/kg.

`Cc1cccc(C(=O)N[C@@H](C)c2ccc(C3CC3)c(-c3ccc4nc(Nc5cnn(C6CC6)c5)ncc4c3)c2)c1` registered an inhibition in series [6] of 24.2%. Also, the midpoint of inhibition in series [7], the IC50, lay at 31 nM.

For `O=C(Nc1cccc(C(F)(F)F)c1)c1ccc(C2CC2)c(-c2ccc3nc(Nc4cnn(C5CC5)c4)ncc3c2)c1`, in [8], the IC50 was 17.2 nM. In addition, the inhibition in [9] was 18.6%; in [10], 100%.

On to `Cc1ccc(C(=O)Nc2cccc(C(F)(F)F)c2)cc1-c1ccc2nc(Nc3cnn(C)c3)ncc2c1`, for which the IC50 in series [11] turned out to be 2.2 nM. Further, the inhibition worked out at 97.2% in series [9] and 80.3% in series [12].

In the case of `Cc1cccc(Cl)c1NC(=O)c1cnc(Nc2cc(N3CCN(C(=O)OCCN4CCOCC4)CC3)ncn2)s1`, the figures for the IC50 in series [13] and in [14] were 2.26 nM and 7.04 nM, respectively.

As for `O=C(Cc1ccc(Cl)c(COc2ccccc2)c1)c1cccc(C(F)(F)F)c1`, half-maximal inhibition in series [15] (IC50) required 92.5 nM.

`Cc1ccc(C(=O)Nc2cccc(C(F)(F)F)c2)cc1NCc1cccc(C(N)=O)c1` displayed an IC50 in series [16] of 4.79 nM.

The compound `Cc1c(-c2c3c(N)n[nH]c(=O)c3nn2-c2ccc(C(N)=O)cc2)oc2cc(C(=O)Nc3ccccc3C(F)(F)F)ccc12` yielded an IC50 in [15] of 10.6 nM.

On to `CCc1ccc(C(=O)Nc2cc(CN3CCN(C)CC3)cc(C(F)(F)F)c2)cc1-c1cccc(-c2cnc3ccnn3c2)c1`, for which the IC50 in series [15] turned out to be 6.6 nM. In addition, the Kd in series [17] came to 2.2 nM.

Turning to `O=C(CN1CN(c2ccccc2)C2(CCN(C(=O)c3ccc4[nH]ncc4n3)CC2)C1=O)NCC(F)(F)F`, the IC50 in series [18] came to 18 nM; in series [19], 858 nM. The compound further registered a CLH in series [4] of 28 µL/min/mg. The same compound registered a solubility in [20] of 365 µg/mL (≈ 708 µM). The clearance in series [5] is 120 mL/min/kg.

Compound `CNC(=O)CN1CN(c2ccccc2)C2(CCN(C(=O)c3ccc4[nH]ncc4c3)CC2)C1=O` showed a CLH in [4] of 12 µL/min/mg. Further, the clearance in series [5] came to 110 mL/min/kg.

For the compound `Cc1ccc2c(Nc3cccc(C(F)(F)F)c3)noc2c1C#Cc1cn2ncccc2n1`, the IC50 in [18] was 10 nM.

As to `O=C(CN1CN(c2ccccc2)C2(CCN(C(=O)c3ccc4[nH]ncc4c3)CC2)C1=O)NCC(F)(F)F`, the IC50 in series [18] amounted to 15 nM; in series [19], 820 nM.

Compound `CC(=O)Nc1ccc(-n2nc3c(=O)[nH]nc(N)c3c2-c2oc3cc(C(=O)Nc4ccccc4C(F)(F)F)ccc3c2C)cc1` displayed an IC50 in [15] of 10.2 nM.
